Reference: patent US20250290032A1, “DEVICE AND METHODS FOR ENGINEERING AND MEASURING FLATTENED 3D CELL CULTURES” (The Trustees of Indiana University, priority 2022, published 2025)

Key:
[1] = system: flattened spinal cord organoids (fSCOs); experiment: MEA mean firing rate of flattened spinal cord organoids after capsaicin and short-term DAMGO; format: cell-based, human
Experimental: (§1) After 10 days of growing, the flattened organoids as developed in accordance with the present disclosure were put into contact with bottom electrodes for measuring electrical and neuron activity. Recording of the spinal cord organoids' electrical activity was performed by using the Axion Mestro Edge (Axion inc). The spinal cord organoids were kept at 37° C. maintained by an internal heater and infused with 5% CO2. To determine the mean firing rate of a spinal cord organoid, the 3-minute MEA recording was repeated 5 times. The final mean firing rate of the organoid was calculated as the average mean firing rate of the 3 most consistent recordings among the 5 recordings. To reduce the variation brought by adding substance, the medium was also refreshed before measuring mean firing rate baseline. The substance was first diluted into ScM IV at 2× of the desired concentration, then half of the medium was replaced with the 2× concentrated solution to reach the desired concentration.
Capsaicin, a transient receptor potential cation channel subfamily V member 1 (TRPV1) agonist, was applied to fSCOs to model pain responses. […] Next, capsaicin and different concentrations of DAMGO together to test the pain relief effects of different opioids doses. […] As the opioids doses increase, the fSCOs' firing rates decreased, and the organoids reached minimal firing rates when the concentration was higher than 1 μM.

[2] = system: flattened spinal cord organoids (fSCOs); experiment: Chronic opioid induced hyperalgesia model: 8-day DAMGO administration, MEA mean firing rate response to capsaicin; format: cell-based, human
Experimental: as §1
The fSCOs of the present disclosure were exposed to prolonged opioid administration to test the tolerance of the organoids to opioid induced hyperalgesia. The fSCOs were treated with DAMGO (500 nM) for 8 days and their responses to pain modulators were tested every other day. […] Organoids treated together with DAMGO and Naloxone, a μ-opioid receptor antagonist, were also tested to determine whether the Naloxone could reduce the opioid induced hyperalgesia.

μ-opioid receptor = molecular target: T1, μ-opioid receptor (Homo sapiens, UniProt P35372); experiment: Immunofluorescence staining of μ-opioid receptor expression after prolonged administration; format: cell-based; settings: prolonged DAMGO treatment group (500 nM, 8 days)
T1 construct: confirm that the presence of neuron populations that express μ-opioid receptors; endogenous in cells; host or cells: flattened spinal cord organoids (fSCOs) derived from WA09 cells
T1 sequence (P35372 whole entry): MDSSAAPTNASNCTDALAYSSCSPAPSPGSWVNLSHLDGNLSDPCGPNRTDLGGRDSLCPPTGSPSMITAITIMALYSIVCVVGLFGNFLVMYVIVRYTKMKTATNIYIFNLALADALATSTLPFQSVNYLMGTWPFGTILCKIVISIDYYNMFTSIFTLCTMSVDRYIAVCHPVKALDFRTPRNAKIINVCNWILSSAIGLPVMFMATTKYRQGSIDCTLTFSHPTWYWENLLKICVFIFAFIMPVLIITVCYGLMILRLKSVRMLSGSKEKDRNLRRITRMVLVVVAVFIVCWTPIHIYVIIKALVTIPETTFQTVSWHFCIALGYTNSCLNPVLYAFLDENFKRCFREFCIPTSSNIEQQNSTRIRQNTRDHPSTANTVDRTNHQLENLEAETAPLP
Experimental: To first validate that the flattened organoids could be utilized to model pain relief, first immunofluorescence staining was used to confirm that the presence of neuron populations that express μ-opioid receptors. Sectioned samples were placed onto charged glass slides and washed three times with 1×PBS. The samples were then treated with 3N hydrochloric acid (HCl) for 15 minutes for antigen retrieval. Following HCl treatment, the samples were washed again twice with 1×PBS and subjected to blocking (0.3% Triton-X100, 5% normal goat serum in 1×PBS) for 1 hour, followed by primary antibody incubation in a humidified chamber at 4° C. overnight. The samples were then washed 3 times with 1×PBS followed by secondary antibody incubation at room temperature for 1 hour before being washed and coverslipped with gold anti-fade mounting medium containing DAPI (Invitrogen).

Question: Which results are given for `COc1cc(CNC(=O)CCCC/C=C/C(C)C)ccc1O` [Capsaicin]?
Answer: % change From Baseline in Mean Firing Rate (Hz) ([1]; Capsaicin): −0.1%; increase of mean firing rate of organoids after stimulation by capsaicin ([1]; capsaicin alone, fSCOs, MEA): 35.4%

Question: Which results are given for `C[C@@H](NC(=O)[C@@H](N)Cc1ccc(O)cc1)C(=O)NCC(=O)N(C)[C@@H](Cc1ccccc1)C(=O)NCCO` [DAMGO]?
Answer: % change From Baseline in Mean Firing Rate (Hz) ([1]; Capsaicin + 100 nM DAMGO): +0.3%; % change From Baseline in Mean Firing Rate (Hz) ([1]; Capsaicin + 500 nM DAMGO): −0.2%; % change From Baseline in Mean Firing Rate (Hz) ([1]; Capsaicin + 1 uM DAMGO): −0.42%; % change From Baseline in Mean Firing Rate (Hz) ([1]; Capsaicin + 10 uM DAMGO): −0.4%; DAMGO concentration at which organoids reached minimal firing rates ([1]; capsaicin together with DAMGO): higher than 1 μM; firing rate of spinal cord organoids versus baseline ([1]; capsaicin together with minimal dose of DAMGO (100 nM)): dropped below baseline; firing rate versus baseline after capsaicin plus low dose of DAMGO (100 nM) ([2]; after 8-day administration, Ctrl and DAMGO+Naloxone group): reduce the firing rate below baseline; DAMGO needed to eliminate pain activity and return to activity baseline ([2]; after 8-day administration, organoids in the DAMGO group (500 nM)): more than 1 μM; mean firing rate increase after capsaicin treatment ([2]; day 6 of DAMGO (500 nM) treatment, control 48%): 73%; mean firing rate increase after capsaicin treatment ([2]; day 8 of DAMGO (500 nM) treatment, control 39%): 93%; mean firing rate increase after capsaicin treatment versus control group ([2]; first 4 days of DAMGO (500 nM) treatment): no significant difference; μ-opioid receptor expression (μ-opioid receptor): downregulated
